Data from ChEMBL document CHEMBL3885881, “DrugMatrix”.

Organism: Rattus norvegicus
Assay: DrugMatrix - Regimen: Daily Repeat
Format: toxicity, organism-based, Sprague-Dawley
Design: regimen Daily Repeat, gender Male, age 6-8 weeks
Details: in vivo, po, route oral GAVAGE, vehicle .5 % CMC; for ABSOLUTE BASOPHIL / ABSOLUTE EOSINOPHIL / ABSOLUTE LYMPHOCYTE / ABSOLUTE MONOCYTE / ABSOLUTE SEGMENTED NEUTROPHIL / BASOPHIL / EOSINOPHIL / ERYTHROCYTE COUNT / HEMATOCRIT / HEMOGLOBIN / LEUKOCYTE COUNT / LYMPHOCYTE / MEAN CORPUSCULAR HEMOGLOBIN / MEAN CORPUSCULAR HEMOGLOBIN CONCENTRATION / MEAN CORPUSCULAR VOLUME / MONOCYTE / NEUTROPHIL / NUCLEATED RED BLOOD CELLS / PLATELET COUNT: tissue Blood; for ALANINE AMINOTRANSFERASE / ALBUMIN / ALKALINE PHOSPHATASE / ASPARTATE AMINOTRANSFERASE / BLOOD UREA NITROGEN / CARBON DIOXIDE / CHLORIDE / CHOLESTEROL / CREATINE PHOSPHOKINASE / CREATININE / GLUCOSE / LACTATE DEHYDROGENASE / LIPASE / PHOSPHORUS / POTASSIUM / SODIUM / TOTAL BILIRUBIN / TOTAL PROTEIN / URIC ACID: tissue Plasma
[1] = 47 mg/kg, 120 h, dose level High, time 5 day
[2] = […], 72 h, dose 3.6 mg/Kg, dose level Low, time 3 day
[3] = […], 120 h, dose 3.6 mg/Kg, dose level Low, time 5 day

CN(C)C(=O)C(CCN1CCC(O)(c2ccc(Cl)cc2)CC1)(c1ccccc1)c1ccccc1 [LOPERAMIDE] was tested, and the “ABSOLUTE BASOPHIL” value [1] was 0 CELLS/uL, the “ABSOLUTE EOSINOPHIL” value [1] was 31.33 CELLS/uL and the “ABSOLUTE LYMPHOCYTE” value [1] was 6903.67 CELLS/uL. The “ABSOLUTE MONOCYTE” value [1] was 106 CELLS/uL, the “ABSOLUTE SEGMENTED NEUTROPHIL” value [1] was 859 CELLS/uL and the BASOPHIL [1] was 0%. The EOSINOPHIL [1] was 0.33%, the “ERYTHROCYTE COUNT” value [1] was 5.64 x10E6/uL and the HEMATOCRIT [1] was 35.1%. For the same molecule, the HEMOGLOBIN [1] was 14.03 G/DL, the “LEUKOCYTE COUNT” value [1] was 7.9 x10E3/uL and the LYMPHOCYTE [1] was 87.67%. The “MEAN CORPUSCULAR HEMOGLOBIN” value [1] was 24.93 pg, the “MEAN CORPUSCULAR HEMOGLOBIN CONCENTRATION” value [1] was 40 G/DL and the “MEAN CORPUSCULAR VOLUME” value [1] was 62.3 fL. For the same molecule, the MONOCYTE [1] was 1.33%, the NEUTROPHIL [1] was 10.67% and the “NUCLEATED RED BLOOD CELLS” value [1] was 0 /100WBC. For the same molecule, the “PLATELET COUNT” value [1] was 1406.33 x10E3/uL, the “ALANINE AMINOTRANSFERASE” value [1] was 93.33 u/L and the ALBUMIN [1] was 4.4 G/DL. The “ALKALINE PHOSPHATASE” value [1] was 365.33 u/L, the “ASPARTATE AMINOTRANSFERASE” value [1] was 91 u/L and the “BLOOD UREA NITROGEN” value [1] was 16 mg/dL. The “CARBON DIOXIDE” value [1] was 30.67 mmol/L, the CHLORIDE [1] was 100.67 MEQ/L and the CHOLESTEROL [1] was 58 mg/dL. The “CREATINE PHOSPHOKINASE” value [1] was 208.67 u/L, the CREATININE [1] was 0.14 mg/dL and the GLUCOSE [1] was 162.67 mg/dL. The “LACTATE DEHYDROGENASE” value [1] was 118.33 u/L, the LIPASE [1] was 7.67 u/L and the PHOSPHORUS [1] was 10.77 mg/dL. For the same molecule, the POTASSIUM [1] was 4.92 MEQ/L, the SODIUM [1] was 146.5 MEQ/L and the “TOTAL BILIRUBIN” value [1] was 0.17 mg/dL. The “TOTAL PROTEIN” value [1] was 6.07 G/DL, the “URIC ACID” value [1] was 0.83 mg/dL and the “ABSOLUTE BASOPHIL” value [2] was 0 CELLS/uL. The “ABSOLUTE EOSINOPHIL” value [2] was 192.67 CELLS/uL, the “ABSOLUTE LYMPHOCYTE” value [2] was 13020.33 CELLS/uL and the “ABSOLUTE MONOCYTE” value [2] was 102.67 CELLS/uL. For the same molecule, the “ABSOLUTE SEGMENTED NEUTROPHIL” value [2] was 1651 CELLS/uL, the BASOPHIL [2] was 0% and the EOSINOPHIL [2] was 1.33%. For the same molecule, the “ERYTHROCYTE COUNT” value [2] was 5.19 x10E6/uL, the HEMATOCRIT [2] was 33.57% and the HEMOGLOBIN [2] was 13.8 G/DL. The “LEUKOCYTE COUNT” value [2] was 14.97 x10E3/uL, the LYMPHOCYTE [2] was 87% and the “MEAN CORPUSCULAR HEMOGLOBIN” value [2] was 26.63 pg. The “MEAN CORPUSCULAR HEMOGLOBIN CONCENTRATION” value [2] was 41.1 G/DL, the “MEAN CORPUSCULAR VOLUME” value [2] was 64.7 fL and the MONOCYTE [2] was 0.67%. For the same molecule, the NEUTROPHIL [2] was 11%, the “NUCLEATED RED BLOOD CELLS” value [2] was 0 /100WBC and the “PLATELET COUNT” value [2] was 1302 x10E3/uL. For the same molecule, the “ALANINE AMINOTRANSFERASE” value [2] was 64.33 u/L, the ALBUMIN [2] was 4.2 G/DL and the “ALKALINE PHOSPHATASE” value [2] was 426 u/L. The “ASPARTATE AMINOTRANSFERASE” value [2] was 86 u/L, the “BLOOD UREA NITROGEN” value [2] was 16 mg/dL and the “CARBON DIOXIDE” value [2] was 27 mmol/L. The CHLORIDE [2] was 102 MEQ/L, the CHOLESTEROL [2] was 83.33 mg/dL and the “CREATINE PHOSPHOKINASE” value [2] was 331 u/L. The CREATININE [2] was 0.14 mg/dL, the GLUCOSE [2] was 168 mg/dL and the “LACTATE DEHYDROGENASE” value [2] was 198.33 u/L. For the same molecule, the LIPASE [2] was 10 u/L, the PHOSPHORUS [2] was 11.93 mg/dL and the POTASSIUM [2] was 5.72 MEQ/L. For the same molecule, the SODIUM [2] was 142.8 MEQ/L, the “TOTAL BILIRUBIN” value [2] was 0.13 mg/dL and the “TOTAL PROTEIN” value [2] was 5.63 G/DL. For the same molecule, the “URIC ACID” value [2] was 1.23 mg/dL, the “ABSOLUTE BASOPHIL” value [3] was 0 CELLS/uL and the “ABSOLUTE EOSINOPHIL” value [3] was 0 CELLS/uL. The “ABSOLUTE LYMPHOCYTE” value [3] was 11205 CELLS/uL, the “ABSOLUTE MONOCYTE” value [3] was 32.67 CELLS/uL and the “ABSOLUTE SEGMENTED NEUTROPHIL” value [3] was 1129 CELLS/uL. The BASOPHIL [3] was 0%, the EOSINOPHIL [3] was 0% and the “ERYTHROCYTE COUNT” value [3] was 5.52 x10E6/uL. The HEMATOCRIT [3] was 35.23%, the HEMOGLOBIN [3] was 14.13 G/DL and the “LEUKOCYTE COUNT” value [3] was 12.37 x10E3/uL. For the same molecule, the LYMPHOCYTE [3] was 91%, the “MEAN CORPUSCULAR HEMOGLOBIN” value [3] was 25.63 pg and the “MEAN CORPUSCULAR HEMOGLOBIN CONCENTRATION” value [3] was 40.13 G/DL. The “MEAN CORPUSCULAR VOLUME” value [3] was 63.87 fL, the MONOCYTE [3] was 0.33% and the NEUTROPHIL [3] was 8.67%. For the same molecule, the “NUCLEATED RED BLOOD CELLS” value [3] was 0 /100WBC, the “PLATELET COUNT” value [3] was 1068 x10E3/uL and the “ALANINE AMINOTRANSFERASE” value [3] was 58.33 u/L. For the same molecule, the ALBUMIN [3] was 4.3 G/DL, the “ALKALINE PHOSPHATASE” value [3] was 376 u/L and the “ASPARTATE AMINOTRANSFERASE” value [3] was 86.67 u/L. For the same molecule, the “BLOOD UREA NITROGEN” value [3] was 13.67 mg/dL, the “CARBON DIOXIDE” value [3] was 33 mmol/L and the CHLORIDE [3] was 101.67 MEQ/L. The CHOLESTEROL [3] was 67.67 mg/dL, the “CREATINE PHOSPHOKINASE” value [3] was 233.67 u/L and the CREATININE [3] was 0.2 mg/dL. The GLUCOSE [3] was 140.33 mg/dL, the “LACTATE DEHYDROGENASE” value [3] was 157.33 u/L and the LIPASE [3] was 9.67 u/L. The PHOSPHORUS [3] was 12.57 mg/dL, the POTASSIUM [3] was 6.47 MEQ/L and the SODIUM [3] was 145.27 MEQ/L. For the same molecule, the “TOTAL BILIRUBIN” value [3] was 0.2 mg/dL, the “TOTAL PROTEIN” value [3] was 6.07 G/DL and the “URIC ACID” value [3] was 1.23 mg/dL.
